# Measured values from ChEMBL document CHEMBL1201862, “PubChem BioAssay data set” (2004).
# Calls of active or inactive are those of the source.
# Assays:
# [1] = biological target: T1, Sentrin-specific protease 6 (Homo sapiens, UniProt Q9GZR1); experiment: SAR Analysis of small molecule inhibitors of Sentrin-specific protease 6 (SENP6) using a Luminescent assay. [Related pubchem assays (depositor defined):AID2582, AID2599]; assay type: functional
# T1 sequence (Q9GZR1 whole entry): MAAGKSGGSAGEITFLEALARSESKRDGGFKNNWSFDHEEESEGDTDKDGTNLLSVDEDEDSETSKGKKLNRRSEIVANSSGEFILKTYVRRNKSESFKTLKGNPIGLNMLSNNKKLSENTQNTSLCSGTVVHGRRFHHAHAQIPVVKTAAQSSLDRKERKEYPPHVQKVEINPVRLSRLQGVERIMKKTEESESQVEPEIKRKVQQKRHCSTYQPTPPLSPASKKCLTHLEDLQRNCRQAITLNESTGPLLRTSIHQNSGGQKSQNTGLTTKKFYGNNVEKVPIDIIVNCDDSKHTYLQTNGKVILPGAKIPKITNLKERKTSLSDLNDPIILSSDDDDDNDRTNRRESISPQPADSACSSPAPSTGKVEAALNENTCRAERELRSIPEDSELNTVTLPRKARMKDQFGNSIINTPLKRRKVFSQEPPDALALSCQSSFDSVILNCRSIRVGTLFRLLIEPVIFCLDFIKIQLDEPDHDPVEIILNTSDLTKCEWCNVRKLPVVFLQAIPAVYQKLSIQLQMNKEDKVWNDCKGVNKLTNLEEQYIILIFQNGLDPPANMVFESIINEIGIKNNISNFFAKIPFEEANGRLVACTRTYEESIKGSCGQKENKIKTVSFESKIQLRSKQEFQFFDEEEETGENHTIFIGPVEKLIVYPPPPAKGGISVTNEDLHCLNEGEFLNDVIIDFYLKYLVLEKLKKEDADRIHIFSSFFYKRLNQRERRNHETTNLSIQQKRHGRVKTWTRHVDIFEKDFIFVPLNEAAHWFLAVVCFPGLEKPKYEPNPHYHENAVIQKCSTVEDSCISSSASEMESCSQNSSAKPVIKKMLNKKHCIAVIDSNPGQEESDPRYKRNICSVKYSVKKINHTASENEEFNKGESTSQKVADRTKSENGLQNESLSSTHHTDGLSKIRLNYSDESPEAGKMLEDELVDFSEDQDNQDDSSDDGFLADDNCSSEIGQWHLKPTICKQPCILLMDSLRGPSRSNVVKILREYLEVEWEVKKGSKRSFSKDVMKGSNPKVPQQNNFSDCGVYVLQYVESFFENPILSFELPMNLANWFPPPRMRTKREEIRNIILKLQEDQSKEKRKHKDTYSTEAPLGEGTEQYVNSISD
# [2] = biological target: T2, Sentrin-specific protease 8 (Homo sapiens, UniProt Q96LD8); assay type: functional;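 note: luminescence read-out of SENP8 inhibition, dose-response confirmation following an ultra-high-throughput screen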
# T2 sequence (Q96LD8 whole entry): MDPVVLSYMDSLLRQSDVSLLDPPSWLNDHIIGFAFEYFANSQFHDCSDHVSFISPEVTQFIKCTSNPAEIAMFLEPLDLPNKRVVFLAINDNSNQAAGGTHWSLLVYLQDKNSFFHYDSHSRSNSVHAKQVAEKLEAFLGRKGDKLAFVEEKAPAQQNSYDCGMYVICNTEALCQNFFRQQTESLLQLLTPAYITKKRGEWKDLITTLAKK
# [3] = biological target: T2, Sentrin-specific protease 8; experiment: SENP8 protease inhibitors, SAR follow-up, biochemical, luminescence (AID 504501); assay type: functional
# [4] = biological target: T3, Caspase-3 (Homo sapiens, UniProt P42574); assay type: functional
# T3 sequence (P42574 whole entry): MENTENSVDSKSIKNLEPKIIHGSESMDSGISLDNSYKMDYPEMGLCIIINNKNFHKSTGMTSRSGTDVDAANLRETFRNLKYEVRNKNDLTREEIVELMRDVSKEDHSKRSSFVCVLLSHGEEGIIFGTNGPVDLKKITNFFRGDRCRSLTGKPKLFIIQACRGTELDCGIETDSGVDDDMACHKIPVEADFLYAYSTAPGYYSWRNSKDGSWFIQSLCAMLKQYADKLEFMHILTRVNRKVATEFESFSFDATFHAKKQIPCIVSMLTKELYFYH
# [5] = biological target: T1, Sentrin-specific protease 6; assay type: functional
# [6] = biological target: T4, Sentrin-specific protease 7 (Homo sapiens, UniProt Q9BQF6); experiment: SENP7 protease inhibitors, SAR follow-up, biochemical, luminescence (AID 504497); assay type: functional
# T4 sequence (Q9BQF6 whole entry): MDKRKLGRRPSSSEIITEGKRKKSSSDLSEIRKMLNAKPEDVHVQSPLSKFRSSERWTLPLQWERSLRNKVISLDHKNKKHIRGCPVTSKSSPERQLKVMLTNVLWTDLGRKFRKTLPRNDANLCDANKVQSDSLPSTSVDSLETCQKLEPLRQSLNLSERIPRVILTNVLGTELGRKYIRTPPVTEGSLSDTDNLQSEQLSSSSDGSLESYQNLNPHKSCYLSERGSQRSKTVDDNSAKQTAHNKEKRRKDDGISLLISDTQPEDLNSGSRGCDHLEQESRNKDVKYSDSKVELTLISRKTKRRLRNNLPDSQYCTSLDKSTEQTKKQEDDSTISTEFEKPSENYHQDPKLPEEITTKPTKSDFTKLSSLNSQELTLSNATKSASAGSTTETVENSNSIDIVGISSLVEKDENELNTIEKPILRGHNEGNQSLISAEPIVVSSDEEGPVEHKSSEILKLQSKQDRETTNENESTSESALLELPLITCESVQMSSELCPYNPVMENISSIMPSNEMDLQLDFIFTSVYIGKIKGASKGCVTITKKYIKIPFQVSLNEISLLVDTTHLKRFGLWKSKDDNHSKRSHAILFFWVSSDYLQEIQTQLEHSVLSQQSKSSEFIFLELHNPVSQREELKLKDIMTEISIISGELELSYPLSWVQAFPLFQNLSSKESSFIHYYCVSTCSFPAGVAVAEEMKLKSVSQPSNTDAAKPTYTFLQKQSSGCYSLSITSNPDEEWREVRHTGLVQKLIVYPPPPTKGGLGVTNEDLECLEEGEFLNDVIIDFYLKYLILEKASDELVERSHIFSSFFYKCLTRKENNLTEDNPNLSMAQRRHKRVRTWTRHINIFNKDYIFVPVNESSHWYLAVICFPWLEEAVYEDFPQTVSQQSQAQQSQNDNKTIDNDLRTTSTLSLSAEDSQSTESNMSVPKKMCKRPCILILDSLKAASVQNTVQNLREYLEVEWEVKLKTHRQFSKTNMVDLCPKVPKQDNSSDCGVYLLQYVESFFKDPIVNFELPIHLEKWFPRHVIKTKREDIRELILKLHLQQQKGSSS
# [7] = biological target: T3, Caspase-3; experiment: SAR Analysis of small molecule inhibitors of Sentrin-specific proteases (SENPs) using a Caspase-3 Selectivity assay. [Related pubchem assays (depositor defined):AID2540, AID2599, AID434973, AID489001]; assay type: functional
# [8] = biological target: T4, Sentrin-specific protease 7; assay type: functional
# [9] = biological target: Cyclin-dependent kinase 5/CDK5 activator 1 (Homo sapiens, UniProt Q00535); experiment: CDK5/p35 kinase inhibitors, dose response, biochemical, cherry-picked samples, set 2 (AID 504545)
# [10] = NIH-3T3 fibroblast cytotoxicity, dose response, cytotoxicity control, cell-based, fluorescence, Alamar Blue, secondary assay (AID 2327); assay type: functional;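 note: NIH-3T3 mouse fibroblasts cultured with fluconazole at 8 µg/mL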
# [11] = C. albicans growth with fluconazole, confirmation, fluorescence, retest (AID 2467); assay type: functional, cell-based
# [12] = biological target: T5, Serine/threonine-protein phosphatase (Candida dubliniensis (strain CD36 / CBS 7987 / NCPF 3949 / NRRLY-17841) (Yeast), UniProt B9W6M3); experiment: calcineurin pathway inhibitors in yeast reporter, dose response, S. cerevisiae, CDRE-lacZ, luminescence, secondary (AID 2388); assay type: functional, cell-based;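 note: yeast reporter cells carrying a calcineurin-responsive lacZ construct stimulated with calcium chloride; luminescent beta-galactosidase reporter signal in whole cells rather than isolated phosphatase activity; potency for inhibition where a drop in reporter signal means calcineurin blockade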
# T5 sequence (B9W6M3 whole entry): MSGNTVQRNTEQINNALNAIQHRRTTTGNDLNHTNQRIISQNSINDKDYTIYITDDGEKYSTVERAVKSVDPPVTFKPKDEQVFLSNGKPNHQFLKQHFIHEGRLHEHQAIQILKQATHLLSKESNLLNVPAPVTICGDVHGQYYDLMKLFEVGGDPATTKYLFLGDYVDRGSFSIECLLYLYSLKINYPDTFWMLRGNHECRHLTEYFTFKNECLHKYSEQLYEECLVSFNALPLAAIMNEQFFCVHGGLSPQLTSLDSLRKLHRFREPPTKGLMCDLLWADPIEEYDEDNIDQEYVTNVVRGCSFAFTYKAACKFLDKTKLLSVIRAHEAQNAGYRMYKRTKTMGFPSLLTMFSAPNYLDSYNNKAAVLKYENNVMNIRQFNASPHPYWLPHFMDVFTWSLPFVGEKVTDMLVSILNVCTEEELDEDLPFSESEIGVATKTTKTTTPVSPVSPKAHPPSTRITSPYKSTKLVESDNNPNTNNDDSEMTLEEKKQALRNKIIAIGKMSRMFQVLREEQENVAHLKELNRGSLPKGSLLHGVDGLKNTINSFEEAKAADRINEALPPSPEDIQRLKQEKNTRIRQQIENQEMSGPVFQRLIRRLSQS
# [13] = biological target: ATP-dependent molecular chaperone HSP82 (Candida albicans (strain WO-1) (Yeast), UniProt C4YTQ8); experiment: loss of DOC-induced GRE-beta-galactosidase reporter signal, dose response, Hsp90 inhibitor project, S. cerevisiae, luminescence (AID 2400); assay type: functional, cell-based;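 note: beta-galactosidase luminescence from glucocorticoid response element reporter as proxy for Hsp90 function; inhibitor potency where signal loss means Hsp90 inhibition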
# [14] = biological target: T6, Streptokinase A (Streptococcus pyogenes serotype M1, UniProt P10520); experiment: S. pyogenes streptokinase expression inhibitors, potency, dose response, plasminogen activation absorbance, OD405 (AID 1914); assay type: functional, Streptococcus pyogenes M1 GAS;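 note: secreted streptokinase activity via plasminogen activation per viability signal from cell pellet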
# T6 sequence (P10520 whole entry): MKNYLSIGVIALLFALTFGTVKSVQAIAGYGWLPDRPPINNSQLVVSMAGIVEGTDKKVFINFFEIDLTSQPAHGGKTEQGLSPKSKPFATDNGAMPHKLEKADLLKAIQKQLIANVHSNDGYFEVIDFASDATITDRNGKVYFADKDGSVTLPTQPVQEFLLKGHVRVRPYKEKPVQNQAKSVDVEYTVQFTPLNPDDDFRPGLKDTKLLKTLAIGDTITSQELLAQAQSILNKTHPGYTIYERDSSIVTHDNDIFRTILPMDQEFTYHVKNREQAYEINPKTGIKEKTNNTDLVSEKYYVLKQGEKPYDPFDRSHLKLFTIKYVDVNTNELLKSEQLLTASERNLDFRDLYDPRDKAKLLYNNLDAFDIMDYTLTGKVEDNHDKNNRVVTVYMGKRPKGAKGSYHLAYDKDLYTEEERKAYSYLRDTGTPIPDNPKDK
# [15] = test system: Streptococcus sp. 'group A'; experiment: growth inhibition of control SK(-) GAS strain, dose response, counter-screen for streptokinase expression inhibitor project, luminescence, kanamycin, BacTiterGlo, confirmation (AID 1900); assay type: functional, organism-based
# [16] = test system: Streptococcus; experiment: Group A Streptococcus viability loss, dose response, counter-screen for streptokinase expression inhibitor project, luminescence, BacTiterGlo (AID 1915); assay type: functional, organism-based;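 note: potency for reduction of bacterial viability or growth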
# [17] = biological target: G-protein coupled receptor 55 (Homo sapiens, UniProt Q9Y2T6); experiment: GPR55 antagonists blocking LPI-driven arrestin recruitment, primary screen, imaging, U2OS, beta-arrestin-GFP, LPI agonist (AID 2013); assay type: functional;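 note: antagonist potency measured as reduced agonist-driven arrestin aggregation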
# [18] = test system: HEK293; experiment: inhibitors of LMP1-driven NF-kB reporter, dose response, cell-based, HEK293, luciferase, cherry-pick (AID 588343); assay type: functional; conditions: Homo sapiens
# [19] = LGR2 antagonists, dose response, cell-based, HEK293, CRE-luciferase reporter, cherry pick, set 2 (AID 743343); assay type: functional;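 note: transfected cells were stimulated with diluted bursicon conditioned medium after compound addition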
# [20] = MC4R antagonists, dose response, counter-screen for LGR2 antagonist project, cell-based, plate reader, cherry pick (AID 743444); assay type: functional;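 note: transfected HEK 293 cells stimulated with alpha-MSH peptide; potency of inhibitors of the alpha-MSH evoked signal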
# [21] = test system: Vero; experiment: Vero cell cytotoxicity, cytotoxicity control for flavivirus capping enzyme inhibitors (AID 588742); assay type: functional; conditions: Chlorocebus sabaeus
# Chain of G-protein coupled receptor 55 (Q9Y2T6 whole entry): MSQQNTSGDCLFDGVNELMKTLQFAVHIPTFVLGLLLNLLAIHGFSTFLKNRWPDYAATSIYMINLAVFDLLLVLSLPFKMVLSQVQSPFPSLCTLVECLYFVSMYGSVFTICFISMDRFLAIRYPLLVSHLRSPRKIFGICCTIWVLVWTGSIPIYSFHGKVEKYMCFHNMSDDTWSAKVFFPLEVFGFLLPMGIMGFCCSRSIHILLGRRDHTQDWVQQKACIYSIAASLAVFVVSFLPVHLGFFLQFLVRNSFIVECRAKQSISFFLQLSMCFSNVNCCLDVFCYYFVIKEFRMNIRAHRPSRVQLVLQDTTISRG
# Chain of Cyclin-dependent kinase 5/CDK5 activator 1 (Q00535 whole entry): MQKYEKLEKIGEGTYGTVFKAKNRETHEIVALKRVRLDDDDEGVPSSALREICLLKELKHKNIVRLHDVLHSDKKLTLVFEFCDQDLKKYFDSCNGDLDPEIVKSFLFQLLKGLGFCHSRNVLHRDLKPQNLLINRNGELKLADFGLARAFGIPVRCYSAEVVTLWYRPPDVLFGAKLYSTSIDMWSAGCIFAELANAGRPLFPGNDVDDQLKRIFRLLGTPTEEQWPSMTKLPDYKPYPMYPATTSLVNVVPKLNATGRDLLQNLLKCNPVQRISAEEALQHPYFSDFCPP
# Chain of Cyclin-dependent kinase 5/CDK5 activator 1 (Q15078 whole entry, further chain): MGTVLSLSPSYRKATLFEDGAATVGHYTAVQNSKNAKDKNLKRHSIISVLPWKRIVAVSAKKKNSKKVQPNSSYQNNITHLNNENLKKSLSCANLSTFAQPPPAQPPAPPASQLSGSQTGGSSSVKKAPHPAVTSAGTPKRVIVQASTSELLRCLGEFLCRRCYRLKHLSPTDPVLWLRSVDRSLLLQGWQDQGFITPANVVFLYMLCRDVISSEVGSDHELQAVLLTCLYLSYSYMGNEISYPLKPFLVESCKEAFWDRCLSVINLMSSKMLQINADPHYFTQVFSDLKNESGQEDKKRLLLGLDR
# Chain of ATP-dependent molecular chaperone HSP82 (C4YTQ8 whole entry): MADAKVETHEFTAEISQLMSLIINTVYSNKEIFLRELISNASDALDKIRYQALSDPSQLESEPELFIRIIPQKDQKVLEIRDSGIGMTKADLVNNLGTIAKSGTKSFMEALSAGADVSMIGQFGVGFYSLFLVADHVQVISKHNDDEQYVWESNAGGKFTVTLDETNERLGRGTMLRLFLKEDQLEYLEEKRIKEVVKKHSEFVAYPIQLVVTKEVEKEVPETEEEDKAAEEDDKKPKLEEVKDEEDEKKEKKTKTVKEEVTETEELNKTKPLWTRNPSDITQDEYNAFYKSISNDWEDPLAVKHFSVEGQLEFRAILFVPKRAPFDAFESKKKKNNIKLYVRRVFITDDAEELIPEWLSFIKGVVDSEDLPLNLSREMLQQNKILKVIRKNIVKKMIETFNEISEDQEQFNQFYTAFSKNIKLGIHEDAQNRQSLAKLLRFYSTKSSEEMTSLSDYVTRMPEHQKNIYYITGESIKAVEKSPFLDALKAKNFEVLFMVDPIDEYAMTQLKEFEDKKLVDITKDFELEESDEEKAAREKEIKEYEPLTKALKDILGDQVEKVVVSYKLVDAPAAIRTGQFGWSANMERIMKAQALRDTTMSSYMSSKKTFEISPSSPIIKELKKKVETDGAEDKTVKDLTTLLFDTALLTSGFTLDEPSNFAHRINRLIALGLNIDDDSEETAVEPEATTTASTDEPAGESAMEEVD
smiles,measurement,setting,value
O=C(O)c1ccc(OC2CSC2)cc1,IC50,[1],18.7 µM (active)
same,IC50,[2],8.43 µM (active)
same,IC50,[3],30 µM (active)
same,IC50,[4],94.9 µM (active)
same,IC50,[5],13 µM (active)
same,IC50,[6],> 99 µM (inactive)
same,IC50,[7],> 99 µM (inactive)
same,IC50,[8],> 100 µM (inactive)
Clc1ccc2oc(-c3ccccc3)nc2c1,IC50,[2],> 100 µM (inactive)
same,IC50,[4],14.2 µM (active)
same,IC50,[5],22 µM (active)
same,IC50,[8],7.93 µM (active)
CCNc1nc(N)nc(-c2cc(Cl)ccc2O)n1,AC50,[9],7.06 µM (active)
same,EC50,[10],40.2 µM (active)
same,IC50,[2],13.7 µM (active)
same,EC50,[11],0.53 µM (active)
same,EC50,[12],> 180 µM (inactive)
same,IC50,[4],18.9 µM (active)
same,IC50,[5],12 µM (active)
same,EC50,[13],20.1 µM (active)
same,IC50,[8],3.99 µM (active)
COc1ccc(NC2=NCC(Cc3ccc(Br)cc3)S2)cc1 (stereo not drawn),EC50,[14],> 150 µM (not active)
same,EC50,[15],9.96 µM (active)
same,EC50,[16],> 150 µM (not active)
same,IC50,[17],1.31 µM (active)
same,AC50,[18],183 µM (active)
Cc1cnc(NC(=O)c2ccc(OCC3CCCO3)cc2)s1 (stereo not drawn),AC50,[18],1.93 µM (active)
same,AC50,[19],4.84 µM (active)
same,AC50,[20],5.51 µM (active)
CCOC(=O)c1cn2nc(N3CCCCC3)ccc2n1,AC50,[18],2.8 µM (active)
same,AC50,[19],2.62 µM (active)
same,AC50,[20],5.1 µM (active)
O=C1C(=Cc2ccccc2[N+](=O)[O-])Cc2ccccc21,CC50,[21],20.9 µM (active)
